pIC50: −log10 of the molar value.
Molecular target: PARP7 (Homo sapiens (Human), UniProt Q7Z3E1)
Sequence (Q7Z3E1 whole entry): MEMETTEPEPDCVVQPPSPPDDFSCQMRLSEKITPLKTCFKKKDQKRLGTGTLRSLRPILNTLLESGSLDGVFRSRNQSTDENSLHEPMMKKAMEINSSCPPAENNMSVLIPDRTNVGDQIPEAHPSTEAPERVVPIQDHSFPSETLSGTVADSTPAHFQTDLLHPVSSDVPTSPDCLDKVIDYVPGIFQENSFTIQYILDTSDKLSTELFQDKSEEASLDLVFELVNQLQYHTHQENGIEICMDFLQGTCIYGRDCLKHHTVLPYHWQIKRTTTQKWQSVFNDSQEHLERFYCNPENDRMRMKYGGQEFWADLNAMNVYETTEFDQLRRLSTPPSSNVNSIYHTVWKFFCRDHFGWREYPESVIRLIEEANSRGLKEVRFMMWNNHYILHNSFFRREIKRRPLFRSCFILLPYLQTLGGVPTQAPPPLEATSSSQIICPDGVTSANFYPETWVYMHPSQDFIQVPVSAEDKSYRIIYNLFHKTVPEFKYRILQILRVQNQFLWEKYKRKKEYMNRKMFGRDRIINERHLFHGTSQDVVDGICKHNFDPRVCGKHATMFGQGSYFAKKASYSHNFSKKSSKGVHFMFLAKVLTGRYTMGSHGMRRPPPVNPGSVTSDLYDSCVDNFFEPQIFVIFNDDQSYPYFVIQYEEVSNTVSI
Assay: In vitro enzymology experiment of PARP7 (enzymatic inhibition)
Format: biochemical
Conditions: not given
Outline: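 Histone-coated plate ADP-ribosylation format: compound preincubated 10 min at room temperature with preincubated (25 °C, 10 min) enzyme mixture; incorporated biotin detected by streptavidin-HRP and QuantaRed fluorescence (Ex550/Em620).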
Compound C[C@@H](Cc1c[nH]c(=O)c(C(F)(F)F)c1)OC(=O)N1CCN(c2ncc(C(F)(F)F)cn2)[C@@H](C)C1 [Example 93, (S)-1-(6-Oxo-5-(trifluoromethyl)-1,6-dihydropyridin-3-yl)propan-2-yl (S)-3-methyl-4-(5-(trifluoromethyl)pyrimidin-2-yl)piperazine-1-carboxylate] has a pIC50 of 9.11. Work on Cc1cnc(N2C[C@@H](C)N(C(=O)OCCc3c[nH]c(=O)c(C(F)(F)F)c3)[C@@H](C)C2)nc1 [Example 163, 2-(6-Oxo-5-(trifluoromethyl)-1,6-dihydropyridin-3-yl)ethyl (2R,6S)-2,6-dimethyl-4-(5-methylpyrimidin-2-yl)piperazine-1-carboxylate] yielded a pIC50 of 9.12. For Cc1cnc(N2C[C@H](C)N(C(=O)OCCc3c[nH]c(=O)c(C(F)(F)F)c3)[C@@H](C)C2)nc1 [Example 164, 2-(6-Oxo-5-(trifluoromethyl)-1,6-dihydropyridin-3-yl)ethyl (2S,6S)-2,6-dimethyl-4-(5-methylpyrimidin-2-yl)piperazine-1-carboxylate], the pIC50 was 8.25. With Cc1cnc(N2[C@H](C)CN(C(=O)OCCc3c[nH]c(=O)c(C(F)(F)F)c3)C[C@@H]2C)nc1 [Example 165, 2-(6-Oxo-5-(trifluoromethyl)-1,6-dihydropyridin-3-yl)ethyl (3S,5R)-3,5-dimethyl-4-(5-methylpyrimidin-2-yl)piperazine-1-carboxylate] the pIC50 was 9.00. In the case of Cc1cnc(N2C[C@H](C)N(C(=O)OCCc3c[nH]c(=O)c(C(F)(F)F)c3)C[C@H]2C)nc1 [Example 166, 2-(6-Oxo-5-(trifluoromethyl)-1,6-dihydropyridin-3-yl)ethyl (2S,5R)-2,5-dimethyl-4-(5-methylpyrimidin-2-yl)piperazine-1-carboxylate], the pIC50 was 9.19. Cc1cnc(N2C[C@@H](C)N(C(=O)OCCc3c[nH]c(=O)c(C(F)(F)F)c3)C[C@@H]2C)nc1 [Example 168, 2-(6-Oxo-5-(trifluoromethyl)-1,6-dihydropyridin-3-yl)ethyl (2R,5S)-2,5-dimethyl-4-(5-methylpyrimidin-2-yl)piperazine-1-carboxylate] showed a pIC50 of 9.05. Cc1cnc(N2C[C@@H](C)N(C(=O)O[C@@H](C)Cc3c[nH]c(=O)c(C(F)(F)F)c3)C[C@H]2C)nc1 [Example 169, (S)-1-(6-Oxo-5-(trifluoromethyl)-1,6-dihydropyridin-3-yl)propan-2-yl (2R,5R)-2,5-dimethyl-4-(5-methylpyrimidin-2-yl)piperazine-1-carboxylate] gave a pIC50 of 9.15. Cc1cnc(N2C[C@H](C)N(C(=O)O[C@@H](C)Cc3c[nH]c(=O)c(C(F)(F)F)c3)C[C@H]2C)nc1 [Example 170, (S)-1-(6-Oxo-5-(trifluoromethyl)-1,6-dihydropyridin-3-yl)propan-2-yl (2S,5R)-2,5-dimethyl-4-(5-methylpyrimidin-2-yl)piperazine-1-carboxylate] gave a pIC50 of 9.06. Work on Cc1cnc(N2C[C@H](C)N(C(=O)O[C@@H](C)Cc3c[nH]c(=O)c(C(F)(F)F)c3)[C@@H](C)C2)nc1 [Example 171, (S)-1-(6-Oxo-5-(trifluoromethyl)-1,6-dihydropyridin-3-yl)propan-2-yl (2S,6S)-2,6-dimethyl-4-(5-methylpyrimidin-2-yl)piperazine-1-carboxylate] yielded a pIC50 of 8.85. Cc1cnc(N2C[C@@H](C)N(C(=O)O[C@@H](C)Cc3c[nH]c(=O)c(C(F)(F)F)c3)C[C@@H]2C)nc1 [Example 172, (S)-1-(6-Oxo-5-(trifluoromethyl)-1,6-dihydropyridin-3-yl)propan-2-yl (2R,5S)-2,5-dimethyl-4-(5-methylpyrimidin-2-yl)piperazine-1-carboxylate] gave a pIC50 of 9.08. Work on C[C@@H]1CN(c2ncc(C3CC3)cn2)[C@@H](C)CN1C(=O)O[C@@H](C)Cc1c[nH]c(=O)c(C(F)(F)F)c1 [Example 173, (S)-1-(6-Oxo-5-(trifluoromethyl)-1,6-dihydropyridin-3-yl)propan-2-yl (2R,5S)-4-(5-cyclopropylpyrimidin-2-yl)-2,5-dimethylpiperazine-1-carboxylate] yielded a pIC50 of 9.13. For C[C@@H]1CN(c2ncc(C3CC3)cn2)C[C@H](C)N1C(=O)O[C@@H](C)Cc1c[nH]c(=O)c(C(F)(F)F)c1 [Example 174, (S)-1-(6-Oxo-5-(trifluoromethyl)-1,6-dihydropyridin-3-yl)propan-2-yl (2R,6S)-4-(5-cyclopropylpyrimidin-2-yl)-2,6-dimethylpiperazine-1-carboxylate], the pIC50 was 8.89. C[C@@H]1CN(c2ncc(C3CC3)cn2)C[C@@H](C)N1C(=O)O[C@@H](C)Cc1c[nH]c(=O)c(C(F)(F)F)c1 [Example 175, (S)-1-(6-Oxo-5-(trifluoromethyl)-1,6-dihydropyridin-3-yl)propan-2-yl (2R,6R)-4-(5-cyclopropylpyrimidin-2-yl)-2,6-dimethylpiperazine-1-carboxylate] gave a pIC50 of 9.12. C[C@@H](Cc1c[nH]c(=O)c(C(F)(F)F)c1)OC(=O)N1CCN(c2ncc(C3CC3)cn2)CC1 [Example 176, (S)-1-(6-Oxo-5-(trifluoromethyl)-1,6-dihydropyridin-3-yl)propan-2-yl 4-(5-cyclopropylpyrimidin-2-yl)piperazine-1-carboxylate] showed a pIC50 of 8.77. For C[C@@H](Cc1c[nH]c(=O)c(C(F)(F)F)c1)OC(=O)N1[C@@H](C)CN(c2ncc(C3CC3)cn2)C[C@@H]1C [Example 177, (S)-1-(6-Oxo-5-(trifluoromethyl)-1,6-dihydropyridin-3-yl)propan-2-yl (2S,6S)-4-(5-cyclopropylpyrimidin-2-yl)-2,6-dimethylpiperazine-1-carboxylate], the pIC50 was 9.11. Work on C[C@@H]1CN(C(=O)O[C@@H](C)Cc2c[nH]c(=O)c(C(F)(F)F)c2)[C@@H](C)CN1c1ncc(C2CC2)cn1 [Example 178, (S)-1-(6-Oxo-5-(trifluoromethyl)-1,6-dihydropyridin-3-yl)propan-2-yl (2S,5R)-4-(5-cyclopropylpyrimidin-2-yl)-2,5-dimethylpiperazine-1-carboxylate] yielded a pIC50 of 8.85. For C[C@@H]1CN(c2ncc(C3CC3)cn2)[C@H](C)CN1C(=O)O[C@@H](C)Cc1c[nH]c(=O)c(C(F)(F)F)c1 [Example 179, (S)-1-(6-Oxo-5-(trifluoromethyl)-1,6-dihydropyridin-3-yl)propan-2-yl (2R,5R)-4-(5-cyclopropylpyrimidin-2-yl)-2,5-dimethylpiperazine-1-carboxylate], the pIC50 was 9.00. With C[C@@H]1CN(C(=O)OCCc2c[nH]c(=O)c(C(F)(F)F)c2)C[C@H](C)N1c1ncc(C2CC2)cn1 [Example 181, 2-(6-Oxo-5-(trifluoromethyl)-1,6-dihydropyridin-3-yl)ethyl (3S,5R)-4-(5-cyclopropylpyrimidin-2-yl)-3,5-dimethylpiperazine-1-carboxylate] the pIC50 was 8.89. For C[C@H]1CN(c2ncc(C3CC3)cn2)C[C@H](C)N1C(=O)OCCc1c[nH]c(=O)c(C(F)(F)F)c1 [Example 182, 2-(6-Oxo-5-(trifluoromethyl)-1,6-dihydropyridin-3-yl)ethyl (2S,6S)-4-(5-cyclopropylpyrimidin-2-yl)-2,6-dimethylpiperazine-1-carboxylate], the pIC50 was 8.26. Work on C[C@@H]1CN(C(=O)OCCc2c[nH]c(=O)c(C(F)(F)F)c2)[C@@H](C)CN1c1ncc(C2CC2)cn1 [Example 183, 2-(6-Oxo-5-(trifluoromethyl)-1,6-dihydropyridin-3-yl)ethyl (2S,5R)-4-(5-cyclopropylpyrimidin-2-yl)-2,5-dimethylpiperazine-1-carboxylate] yielded a pIC50 of 9.00. In the case of C[C@@H]1CN(c2ncc(C3CC3)cn2)[C@@H](C)CN1C(=O)OCCc1c[nH]c(=O)c(C(F)(F)F)c1 [Example 184, 2-(6-Oxo-5-(trifluoromethyl)-1,6-dihydropyridin-3-yl)ethyl (2R,5S)-4-(5-cyclopropylpyrimidin-2-yl)-2,5-dimethylpiperazine-1-carboxylate], the pIC50 was 8.92.

Test system: not listed separately
Assay: In vivo pharmacokinetic assay in rats (intravenous injection and oral administration)
Conditions: SD rats, oral administration, 5 mg/kg
From the text: III. In Vivo Pharmacokinetic Assay in Mice and Rats
The pharmacokinetic behavior of the compound of the present disclosure in plasma after a single intravenous injection and oral administration was studied using male C57BL/6 mice or SD male rats as experimental animals.
Healthy adult C57BL/6 mice or SD rats (3 mice or rats per group), male, supplied by Shanghai Jihui Laboratory Animal Care Co., Ltd. and Vital River Laboratory Animal Technology Co., Ltd.
Both the intravenous injection and oral administration groups consisted of 3 mice or rats. The intravenous injection was at a dose of 1 mg/kg and in a volume of 5 mL/kg; the oral administration was at a dose of 5 mg/kg and in a volume of 10 mL/kg. The vehicle for administration was 5% DMSO/5% Kolliphor HS 15/90% Saline.
2.3 Experimental Equipment
The centrifuge was purchased from Eppendorf, and the pipette was purchased from Eppendorf.
After the animals were administered, 0.02 mL of blood was collected from the vein at 0.0833 (IV), 0.25, 0.5, 1, 2, 4, 8, and 24 hours, respectively, placed in an EDTA-K2 test tube, centrifuged at 4600 rpm for 5 minutes at 4° C. to separate the plasma, and stored at −80° C.
1) 10 μL of plasma sample was precipitated by adding 200 μL of acetonitrile, vortexed to mix, and centrifuged for 15 minutes.
2) The treated supernatant was diluted with water, and the concentration of the test compound was analyzed by LC/MS/MS.
• Liquid phase conditions: Shimadzu LC-30AD • Mass spectrometry conditions: AB Sciex API 5500 • Chromatographic column: Phenomenex Kinetex 2.6 μm C18 • Mobile phases: A: 5 mM ammonium acetate aqueous solution (containing 0.05% formic acid); B: acetonitrile (containing 0.1% formic acid); flow rate: 0.5 mL/min
3. Experimental Results and Analysis
Pharmacokinetic parameters were calculated using WinNonlin 8.0, and the pharmacokinetic parameters for intravenous injection and oral administration in mice or rats are shown in Table 2 and Table 3 below: […]
Work on C[C@@H](Cc1c[nH]c(=O)c(C(F)(F)F)c1)OC(=O)N1CCN(c2ncc(C(F)(F)F)cn2)[C@@H](C)C1 [Example 93, (S)-1-(6-Oxo-5-(trifluoromethyl)-1,6-dihydropyridin-3-yl)propan-2-yl (S)-3-methyl-4-(5-(trifluoromethyl)pyrimidin-2-yl)piperazine-1-carboxylate] yielded an F of 77%.

Same assay, conditions: male, rat, plasma; SD rats, intravenous injection, 1 mg/kg
C[C@@H](Cc1c[nH]c(=O)c(C(F)(F)F)c1)OC(=O)N1CCN(c2ncc(C(F)(F)F)cn2)[C@@H](C)C1 [Example 93, (S)-1-(6-Oxo-5-(trifluoromethyl)-1,6-dihydropyridin-3-yl)propan-2-yl (S)-3-methyl-4-(5-(trifluoromethyl)pyrimidin-2-yl)piperazine-1-carboxylate] gave an AUC of 978 ng·h/mL, a clearance of 16.7 mL/min/kg and a half-life of 1.9 h.

Same assay, conditions: male, rat, plasma; SD rats, intravenous injection, 1 mg/kg; read-out: Vss
For C[C@@H](Cc1c[nH]c(=O)c(C(F)(F)F)c1)OC(=O)N1CCN(c2ncc(C(F)(F)F)cn2)[C@@H](C)C1 [Example 93, (S)-1-(6-Oxo-5-(trifluoromethyl)-1,6-dihydropyridin-3-yl)propan-2-yl (S)-3-methyl-4-(5-(trifluoromethyl)pyrimidin-2-yl)piperazine-1-carboxylate], the Vd was 1.9 L/kg.

Same assay, conditions: male, rat, plasma; SD rats, oral administration, 5 mg/kg
In the case of C[C@@H](Cc1c[nH]c(=O)c(C(F)(F)F)c1)OC(=O)N1CCN(c2ncc(C(F)(F)F)cn2)[C@@H](C)C1 [Example 93, (S)-1-(6-Oxo-5-(trifluoromethyl)-1,6-dihydropyridin-3-yl)propan-2-yl (S)-3-methyl-4-(5-(trifluoromethyl)pyrimidin-2-yl)piperazine-1-carboxylate], the AUC was 3830 ng·h/mL and the Cmax was 809 ng/mL.

From patent US20240351997A1, “NOVEL PARP7 INHIBITOR AND USE THEREOF” (SHANGHAI QILU PHARMACEUTICAL RESEARCH AND DEVELOPMENT …, priority 2021, published 2024)
